Where a SMILES comes first, the peptide text is derived from it. Bridges are numbered along the chain shown (N, C = ends).
System: HTT
Test: HL2 macrocycle pulldown from isogenic neuronal progenitor cells (NPCs), LC-MS/MS
Format: binding, human
Conditions: isogenic NPC lines Q30/Q19, Q45/Q19 and Q81/Q27
Text: We extended our analysis to isogenic neuronal progenitor cells (NPCs), which more closely resemble the neuronal populations affected in HD, both functionally and in terms of gene expression profiles ([Ooi et al., 2019]). […] Thus, we compared HL2 protein enrichment profiles across isogenic NPC lines harboring non-expanded (Q30/Q19) and expanded CAG repeats (Q45/Q19 and Q81/Q27).
Successful macrocycle-mediated pulldown was first confirmed by western blot in all NPC lines (Supplementary Figure 14a). […] HTT and HAP40 were the only proteins consistently overlapping across all three NPC lines (Supplementary Figure 14b). […]
Cells were harvested by centrifugation at 1,500 rpm for 5 minutes, washed twice with PBS, and snap-frozen. […] Protein concentration was determined by BCA assay (Thermo Fisher Scientific, 23225), yielding approximately 4 mg of protein on average. […]
All sample preparation, LC MS/MS data collection, and MS data searches were carried out at the SPARC BioCentre at The Hospital for Sick Children (Toronto, ON, Canada). […] Samples were analyzed by liquid chromatography tandem mass spectrometry (LC-MS/MS) using an EASY-nanoLC 1200 system with a 1 h analysis and an Orbitrap Fusion™ Lumos™ Tribrid™ Mass Spectrometer (Thermo Fisher Scientific). […]

**Q.** How did the “Enrichment of HTT in HL2 pulldown from NPC lines by LC-MS/MS” value turn out when `CC(C)C[C@@H]1NC(=O)[C@H](Cc2ccc(O)cc2)NC(=O)[C@H](CCCNC(=N)N)NC(=O)[C@H](C)NC(=O)[C@H]([C@@H](C)O)NC(=O)[C@H](Cc2ccc(O)cc2)NC(=O)CSC[C@@H](C(N)=O)NC(=O)[C@H](CCCCN)NC(=O)[C@H](Cc2ccc(O)cc2)NC(=O)[C@H](Cc2c[nH]cn2)NC(=O)[C@H](CC(C)C)NC(=O)[C@H]([C@@H](C)O)NC(=O)CNC(=O)[C@H](CC(C)C)NC(=O)[C@H]([C@@H](C)O)NC1=O` [HL2] ({CH2CO}-YTARYLTLGTLHYKC-NH2; thioether N-15; C-terminus assumed) was run?
**A.** Its value is “most abundantly enriched protein across all lines”.

Source: doi:10.1101/2025.08.06.668955, “High-Affinity, Structure-Validated and Selective Macrocyclic Peptide Tools for Chemical Biology Studies of Huntingtin” (bioRxiv, 2025)
